This note sets out measurements from patent US12344606B2, “Next-generation modulators of stimulator of interferon genes (STING)” (RYVU THERAPEUTICS S.A., priority 2019, dated 2025).

The subject of assay [1] is interferon regulatory factor (IRF) pathway in THP-1 dual cells. Briefly: THP-1 Dual reporter assay, IRF pathway (luciferase). It is filed as cell-based. The following applies: Homo sapiens, THP1-Dual; 18 h stimulation, luminescence. As to the method:
(§1) Compounds of the present invention were tested for their activity using THP-1 dual cells (Invivogen, cat no. thpd-nfis) allowing for simultaneous study of NF-κB pathway and the interferon regulatory factor (IRF) pathway. THP-1 dual cells contain luciferase reporter gene under the control of an ISG54 (interferon-stimulated gene) minimal promoter in conjunction with five interferon-stimulated response elements and a secreted embryonic alkaline phosphatase reporter gene under the control an IFN (interferon)-β minimal promoter fused to five copies of the NF-κB consensus transcriptional response element with three copies of the c-Rel binding site. Following 18 h of stimulation with STING agonist, medium was collected and transferred onto fresh cell culture plate. To verify activity of the IRF pathway, luminescence activity was measured with standard laboratory plate reader immediately after addition 10 μl of the medium to 50 μl (or 40 μl) of luminescence reagent (Invivogen, cat. No. rep-qlc2). To verify activity of NF-κB pathway, 20 μl (or 10 μl) of the medium was mixed with 80 μl of a detection medium (Invivogen, cat. No. rep-qb2) and incubated for 2 hours (or 1 hour) at 37° C. in a humidified atmosphere containing 5% CO2. Next, absorbance at 630 nm (or 655 nm) was recorded using standard laboratory plate reader.

The target of another assay is human STING (Homo sapiens, UniProt Q86WV6). As to the kind of experiment: Fluorescence Thermal Shift assay (hSTING FTS binding assay). The settings on record: STING 0.1 mg/ml, 20 min preincubation, SyproOrange. On the procedure: Compounds of the present invention were tested for binding to human STING in Fluorescence Thermal Shift assay. STING was preincubated with the compounds for 20 minutes in 50 mM Hepes, 150 mM NaCl, pH 7.5 in 16 μl volume, following by adding 4 μl of SyproOrange dye dilution (ThermoFisher, cat no. S-6651). Final STING concentration was 0.1 mg/ml. Thermal unfolding was performed in Real-Time PCR QuantStudio 6 Flex System (Applied Biosystems), from 25 to 99° C., with continuous ramp mode and ramp rate 0.033° C./s. The data were analyzed using Protein Thermal Shift Software (ThermoFisher).

Assay [2] relates to NF-κB pathway in THP-1 dual cells. As to the kind of experiment: THP-1 Dual reporter assay, NF-κB pathway (SEAP). The following applies: Homo sapiens, THP1-Dual; 18 h stimulation, absorbance; read-out: THP1 Dual EC50 (μM) NFkB. The class given is cell-based. On the procedure: as §1
Background: In a reporter assay the amount or activity of a reporter protein is the signal.

human STING, sequence (Q86WV6 whole entry H232R): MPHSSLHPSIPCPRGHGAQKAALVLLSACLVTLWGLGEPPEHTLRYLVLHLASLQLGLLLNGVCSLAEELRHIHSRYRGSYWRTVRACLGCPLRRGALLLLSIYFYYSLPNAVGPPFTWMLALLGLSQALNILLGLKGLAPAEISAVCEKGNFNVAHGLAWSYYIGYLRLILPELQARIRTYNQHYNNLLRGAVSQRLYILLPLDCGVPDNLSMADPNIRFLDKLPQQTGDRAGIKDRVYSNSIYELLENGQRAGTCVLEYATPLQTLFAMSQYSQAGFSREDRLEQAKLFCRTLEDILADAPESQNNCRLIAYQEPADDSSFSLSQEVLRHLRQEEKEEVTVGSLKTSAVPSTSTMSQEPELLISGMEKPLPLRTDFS

The term EC50 denotes the midpoint of the concentration-response curve. Turning to `Cc1cc(CN(Cc2cn(C)c3ccccc3c2=O)[C@H]2CCCN(c3cc[nH]c(=O)c3)C2)ccn1` [Example 30, 1-methyl-3-({[(2-methylpyridin-4-yl)methyl][(3S)-1-(2-oxo-1,2-dihydropyridin-4-yl)piperidin-3-yl]amino}methyl)-1,4-dihydroquinolin-4-one], the EC50 in assay [1] and in assay [2] was at least 10 µM throughout. Besides, on human STING, the “hSTING FTS binding assay (ΔT C.°)” value is given as “+ (ΔTm<10° C.)”.
Take `COc1cc(CN(Cc2cn(C3CC3)c3cc(F)c(F)cc3c2=O)[C@H]2CCCN(c3ccc(C)nc3)C2)ccn1` [Example 31, 1-cyclopropyl-6,7-difluoro-3-({[(2-methoxypyridin-4-yl)methyl][(3S)-1-(6-methylpyridin-3-yl)piperidin-3-yl]amino}methyl)-1,4-dihydroquinolin-4-one]: the EC50 in assay [1] and in assay [2] was at most 1 µM in each case. At human STING, the “hSTING FTS binding assay (ΔT C.°)” value is reported as “++ (ΔTm>10° C.)”.
Take `Cc1cc(CN(Cc2cn(C)c3ccccc3c2=O)[C@H]2CCCN(c3ncc(Br)cn3)C2)ccn1` [Example 32, 3-({[(3S)-1-(5-bromopyrimidin-2-yl)piperidin-3-yl][(2-methylpyridin-4-yl)methyl]amino}methyl)-1-methyl-1,4-dihydroquinolin-4-one]: the EC50 in assay [1] and in assay [2] was 1 to 10 µM each time. For the same compound, the “hSTING FTS binding assay (ΔT C.°)” value on human STING is listed as “+ (ΔTm<10° C.)”.
For `Cc1cc(CN(Cc2cn(C)c3ccccc3c2=O)C2CN(c3cccnc3)CC(F)(F)C2)ccn1` (stereo not drawn) [Example 34, 3-({[5,5-difluoro-1-(pyridin-3-yl)piperidin-3-yl][(2-methylpyridin-4-yl)methyl]amino}methyl)-1-methyl-1,4-dihydroquinolin-4-one], the EC50 in assay [1] and in assay [2] was at least 10 µM in each case. The “hSTING FTS binding assay (ΔT C.°)” value at human STING was “+ (ΔTm<10° C.)”.
In the case of `Cc1cc(CN(Cc2c[nH]c3ccccc3c2=O)[C@H]2CCCN(c3cccnc3)C2)ccn1` [Example 35, 3-({[(2-methylpyridin-4-yl)methyl][(3S)-1-(pyridin-3-yl)piperidin-3-yl]amino}methyl)-1,4-dihydroquinolin-4-one], the results for the EC50 in assay [1] and in assay [2] were at most 1 µM and 1 to 10 µM, respectively. Further, the “hSTING FTS binding assay (ΔT C.°)” value on human STING was “++ (ΔTm>10° C.)”.
Taken in the same sequence, the figures for `Cc1cc(CN(Cc2cn(C)c3ccccc3c2=O)[C@H]2CCCN(c3cccnc3[N+](=O)[O-])C2)ccn1` [Example 36, 1-methyl-3-({[(2-methylpyridin-4-yl)methyl][(3S)-1-(2-nitropyridin-3-yl)piperidin-3-yl]amino}methyl)-1,4-dihydroquinolin-4-one] were at least 10 µM, at least 10 µM and “+ (ΔTm<10° C.)”.
As to `Cc1ccc(N2CCC[C@H](N(Cc3ccnc(C)c3)Cc3cn(C)c4cc(Br)ccc4c3=O)C2)cn1` [Example 37, 7-bromo-1-methyl-3-({[(3S)-1-(6-methylpyridin-3-yl)piperidin-3-yl][(2-methylpyridin-4-yl)methyl]amino}methyl)-1,4-dihydroquinolin-4-one], the EC50 in assay [1] and in assay [2] was at most 1 µM in each case. In addition, the “hSTING FTS binding assay (ΔT C.°)” value on human STING is reported as “++ (ΔTm>10° C.)”.
In the case of `Cc1cc(CN(Cc2cn(C)c3ccccc3c2=O)[C@H]2CCCN(c3cccnc3)C2)cc(C)n1` [Example 38, 3-({[(2,6-dimethylpyridin-4-yl)methyl][(3S)-1-(pyridine-3-yl)piperidin-3-yl]amino}methyl)-1-methyl-1,4-dihydroquinolin-4-one], the EC50 in assay [1] and in assay [2] was at least 10 µM in each case. Besides, the “hSTING FTS binding assay (ΔT C.°)” value at human STING is “+ (ΔTm<10° C.)”.
For the compound `Cn1cc(CN(Cc2ccncc2)[C@H]2CCCN(c3cccnc3)C2)c(=O)c2ccccc21` [Example 39, 1-methyl-3-({[(3S)-1-(pyridin-3-yl)piperidin-3-yl][(pyridin-4-yl)methyl]amino}methyl)-1,4-dihydroquinolin-4-one], the EC50 in assay [1] is at most 1 µM; in assay [2] it was 1 to 10 µM. For the same compound, the “hSTING FTS binding assay (ΔT C.°)” value on human STING is on record as “++ (ΔTm>10° C.)”.
Regarding `Cc1ccc(N2CCC[C@H](N(Cc3ccnc(C)c3)Cc3cn(C4CC4)c4cc(Cl)c(F)cc4c3=O)C2)cn1` [Example 40, 7-chloro-1-cyclopropyl-6-fluoro-3-({[(3S)-1-(6-methylpyridin-3-yl)piperidin-3-yl][(2-methylpyridin-4-yl)methyl]amino}methyl)-1,4-dihydroquinolin-4-one], the EC50 in assay [1] and in assay [2] was at most 1 µM in each case. Besides, the “hSTING FTS binding assay (ΔT C.°)” value on human STING is “++ (ΔTm>10° C.)”.
In the case of `Cc1cc(CN(Cc2cn(C)c3ccccc3c2=O)[C@H]2CCCN(c3ccn(C)c(=O)c3)C2)ccn1` [Example 41, 1-methyl-3-({[(3S)-1-(1-methyl-2-oxo-1,2-dihydropyridin-4-yl)piperidin-3-yl][(2-methylpyridin-4-yl)methyl]amino}methyl)-1,4-dihydroquinolin-4-one], the EC50 in assay [1] and in assay [2] was at least 10 µM each time. Besides, the “hSTING FTS binding assay (ΔT C.°)” value at human STING is “+ (ΔTm<10° C.)”.
For the compound `Cc1ccc(N2CCC[C@H](N(Cc3ccnc(C)c3)Cc3cn(C4CC4)c4nc(Cl)c(F)cc4c3=O)C2)cn1` [Example 42, 7-chloro-1-cyclopropyl-6-fluoro-3-({[(3S)-1-(6-methylpyridin-3-yl)piperidin-3-yl][(2-methylpyridin-4-yl)methyl]amino}methyl)-1,4-dihydro-1,8-naphthyridin-4-one], the EC50 in assay [1] and in assay [2] was at most 1 µM in each case. Also, the “hSTING FTS binding assay (ΔT C.°)” value at human STING is given as “++ (ΔTm>10° C.)”.
For the compound `Cc1ccc(N2CCC[C@H](N(Cc3ccnc(C)c3)Cc3cn(C4CC4)c4[nH]c(=O)c(F)cc4c3=O)C2)cn1` [Example 43, 1-cyclopropyl-6-fluoro-7-hydroxy-3-({[(3S)-1-(6-methylpyridin-3-yl)piperidin-3-yl][(2-methylpyridin-4-yl)methyl]amino}methyl)-1,4-dihydro-1,8-naphthyridin-4-one], the EC50 in assay [1] and in assay [2] was at least 10 µM in each case. Also, the “hSTING FTS binding assay (ΔT C.°)” value at human STING is “++ (ΔTm>10° C.)”.
Consider `COc1nc2c(cc1F)c(=O)c(CN(Cc1ccnc(C)c1)[C@H]1CCCN(c3ccc(C)nc3)C1)cn2C1CC1` [Example 44, 1-cyclopropyl-6-fluoro-7-methoxy-3-({[(3S)-1-(6-methylpyridin-3-yl)piperidin-3-yl][(2-methylpyridin-4-yl)methyl]amino}methyl)-1,4-dihydro-1,8-naphthyridin-4-one], for which the EC50 in assay [1] and in assay [2] was at most 1 µM in each case. Moreover, the “hSTING FTS binding assay (ΔT C.°)” value at human STING is reported as “++ (ΔTm>10° C.)”.
For the compound `COc1cc2c(cc1F)c(=O)c(CN(Cc1ccnc(C)c1)[C@H]1CCCN(c3ccc(C)nc3)C1)cn2C1CC1` [Example 45, 1-cyclopropyl-6-fluoro-7-methoxy-3-({[(3S)-1-(6-methylpyridin-3-yl)piperidin-3-yl][(2-methylpyridin-4-yl)methyl]amino}methyl)-1,4-dihydroquinolin-4-one], the EC50 in assay [1] and in assay [2] was at most 1 µM each time. Moreover, the “hSTING FTS binding assay (ΔT C.°)” value on human STING was “++ (ΔTm>10° C.)”.
In the case of `Cc1ccc(N2CCC[C@H](N(Cc3ccnc(C)c3)Cc3cn(C4CC4)c4cc(N5CCN[C@H](C)C5)c(F)cc4c3=O)C2)cn1` [Example 46, 1-cyclopropyl-6-fluoro-7-[(3R)-3-methylpiperazin-1-yl]-3-({[(3S)-1-(6-methylpyridin-3-yl)piperidin-3-yl][(2-methylpyridin-4-yl)methyl]amino}methyl)-1,4-dihydroquinolin-4-one], the EC50 in assay [1] and in assay [2] was at most 1 µM each time. Moreover, on human STING, the “hSTING FTS binding assay (ΔT C.°)” value is given as “++ (ΔTm>10° C.)”.
For the compound `Cc1ccc(N2CCC[C@H](N(Cc3ccnc(C)c3)Cc3cn(C4CC4)c4cc(N5CCNCC5)c(F)cc4c3=O)C2)cn1` [Example 47, 1-cyclopropyl-6-fluoro-3-({[(3S)-1-(6-methylpyridin-3-yl)piperidin-3-yl][(2-methylpyridin-4-yl)methyl]amino}methyl)-7-(piperazin-1-yl)-1,4-dihydroquinolin-4-one], the EC50 in assay [1] and in assay [2] was at most 1 µM in each case. In addition, at human STING, the “hSTING FTS binding assay (ΔT C.°)” value is given as “++ (ΔTm>10° C.)”.
As to `Cc1ccc(N2CCC[C@H](N(Cc3ccnc(C)c3)Cc3cn(C4CC4)c4cc(N5CCN(CC(F)F)CC5)c(F)cc4c3=O)C2)cn1` [Example 48, 1-cyclopropyl-7-[4-(2,2-difluoroethyl)piperazin-1-yl]-6-fluoro-3-({[(3S)-1-(6-methylpyridin-3-yl)piperidin-3-yl][(2-methylpyridin-4-yl)methyl]amino}methyl)-1,4-dihydroquinolin-4-one], the EC50 in assay [1] and in assay [2] was at most 1 µM each time. In addition, at human STING, the “hSTING FTS binding assay (ΔT C.°)” value is “++ (ΔTm>10° C.)”.
